# Measurements published in US9388444B2, “Use of glucosyltransferase gene” (The United States of America, as represented by the …, priority 2013, dated 2016).
# Experiments:
# Gtf-1 = experiment: In vitro HPLC-MS glucosyltransferase activity assay with sonicated extract of recombinant S. cerevisiae [pYES2/NT/gft1]; assay type: biochemical, C. bombicola; settings: for effect of lipid stock solvent on enzyme activity: solvent used to prepare 50 mM lipid stock solution; for glucosyltransferase enzyme activity toward lipid substrate (appearance of glucoside product): UDP-glucose as sugar substrate, 30° C., 3 hours, HPLC-MS, product absent with control [pYES2/NT/lacZ] extract
# Method: An in vitro enzyme activity assay is performed to verify the functional property of Gtf-1 expressed in the recombinant S. cereviciae [pYES2/NT/gft1]. In this plasmid, the expression of gtf-1 is regulated by a yeast GAL1 promoter that is inducible by the addition of galactose (FIG. 1). An HPLC-MS-based method is developed to assay for glucosyltransferase activity in recombinant S. cerevisiae expressing C. bombicola gft-1 gene cloned in the pYES2/NT/gft1 plasmid construct. As control samples, S. cerevisiae transformed with pYES2/NT/gft1CON and pYES2/NT/lacZ are included in the study. The growing and induction of S. cerevisiae cells is performed according to the protocol described in the manual of pYES2/NT Yeast Expression System (Invitrogen, Carlsbad, Calif.). Briefly, cells from long-term (−80° C.) storage stock cultures are streaked on Yeast Extract Peptone Dextrose (YPD) agar solid medium (1% w/v yeast extract, 2% w/v peptone, 2% w/v dextrose (D-(+)glucose), 2% w/v agar) and grown at 30° C. for 1 to 2 days. A single colony is picked to inoculate 5 ml of SC-U+Glu(2%) in a 25-ml Erlenmeyer flask. The culture is grown overnight at 30° C. and 200 rpm. A volume of the overnight culture, which is based on achieving a theoretical absorbance at 600 nm (A600 nm)=0.4 in the fresh culture, is added to 50 ml of SC-U+Raf(2%) medium in a 125-ml Erlenmeyer. After an overnight incubation (30° C., 200 rpm), A600 nm values of the cultures are recorded. Five ml of sterile 20% (w/v) D-(+)-galactose are added to each culture to induce expression of the cloned gene, and the cells are incubated for 4 hours at 30° C., 200 rpm. Cells are then harvested by centrifugation (Sorvall RC-5B Plus centrifuge; 5,000×g; 10 min; 4° C.) (ThermoFisher Scientific, Waltham, Mass.) with the supernatant being decanted. The pelleted cells are resuspended and washed with 5 ml cold water, undergo another centrifugation using same parameters with removal of the supernatant after centrifugation, and are resuspended in a volume of a Breaking Buffer (50 mM sodium phosphate at pH 7.4; 1 mM Na-EDTA; 5% v/v glycerol; 1 mM phenylmethylsulfonylfluoride (PMSF) which is added immediately before use) in 15-mL Corex centrifugation tube to give a theoretical A600 nm of 200. Cell suspension can be stored at −20° C. overnight and still retain glucosyltransferase activity. Cells are broken by sonication (Sonicator model W-385 equipped with a microtip probe; Heat-Systems, Inc., Farmingdale, N.Y.) for 10 to 15 seconds (with 30 seconds sample cooling on ice-water bath) at maximum probe-tolerant power setting. The sonicated cell suspension (SCS) is used in the reaction mixtures to assay for glycosylation activity.
# The reaction mixture for glycosylation assay is largely based on that described by Saerens et al. 2011b. The following procedure is used: 10 μl of a 50 mM-lipid substrate stock solution (which is prepared in one of the following solvents: DMF (dimethylformamide), DMSO ([…]), THF (tetrahydrofuran), ethylacetate, or ethanol) and 10 μl of a 50 mM-UDP-glucose solution (Sigma Aldrich, St. Louis, Mo.) are added to 30 μl of 50 mM potassium phosphate buffer (pH 7.5) in a 13×100 mm test tube on ice. 200 μl of the sonicated cell suspension is then added to the mixture of the two substrates. The final reaction mixture (250 μl) is incubated at 30° C. for 3 hours with frequent manual mixing (approximately every 10-15 minutes). The reaction is stopped by the addition of 200 μl of 2N HCl, followed by vigorous vortex mixing for approximately 30 to 60 seconds. The reaction mixture is extracted with 1 to 2 ml 1:1 v/v ethylether/ethylacetate mixture by vigorous vortex mixing. The tube is placed on lab bench undisturbed for phase separation to occur. Using a Hamilton syringe, the organic phase (upper layer) is carefully removed and is placed into a clean test tube (12×75 mm). The solvent is then evaporated by passing a stream of nitrogen gas over the solution, leaving a dry residue. […]
# [1] = aqueous solution of sophorolipid; cited from earlier work
compound,measurement,setting,value
"CN(C)C=O [DMF, dimethylformamide]",effect of lipid stock solvent on enzyme activity,Gtf-1,without adversely impacting on enzymatic activity
CC[C@H](/C=C/[C@@H](C)[C@H]1CC[C@H]2[C@@H]3CC=C4C[C@@H](O)CC[C@]4(C)[C@H]3CC[C@]12C)C(C)C [stigmasterol],glucosyltransferase enzyme activity toward lipid substrate (appearance of glucoside product),Gtf-1,give the same results
17-hydroxy-oleate [17-OH oleate],glucosyltransferase enzyme activity toward lipid substrate (appearance of glucoside product),Gtf-1,presence of glucosyltransferase enzyme activity is confirmed
"C1CCOC1 [THF, tetrahydrofuran]",effect of lipid stock solvent on enzyme activity,Gtf-1,inhibits enzyme activity
CC(C)[C@@H](C)/C=C/[C@@H](C)[C@H]1CC[C@H]2C3=CC=C4C[C@@H](O)CC[C@]4(C)[C@H]3CC[C@]12C [ergosterol],glucosyltransferase enzyme activity toward lipid substrate (appearance of glucoside product),Gtf-1,give the same results
CC(C)CCC[C@@H](C)[C@H]1CC[C@H]2[C@@H]3CC=C4C[C@@H](O)CC[C@]4(C)[C@H]3CC[C@]12C [cholesterol],glucosyltransferase enzyme activity toward lipid substrate (appearance of glucoside product),Gtf-1,presence of glucosyltransferase enzyme activity is confirmed
sophorolipid,Surface tension,[1],30-40 mN/m
CC[C@H](CC[C@@H](C)[C@H]1CC[C@H]2[C@@H]3CC=C4C[C@@H](O)CC[C@]4(C)[C@H]3CC[C@]12C)C(C)C [β-sitosterol],glucosyltransferase enzyme activity toward lipid substrate (appearance of glucoside product),Gtf-1,give the same results
